According to PubChem BioAssay AID248 (DTP/NCI, 2004):
“And” between values parts separate entries of the source, which are not always exact repeats. Equal values may be shown once. Toxic doses and inconclusive results are not listed. No stated cut-off is given here; in the data, active means T/C of 150% or more; inactive means T/C below 125%.

Tested on: L1210 leukemia ip in BDF1 mice, survival T/C
Assay: NCI In Vivo Anticancer Drug Screen. Data for tumor model L1210 Leukemia (intraperitoneal) in B6D2F1 (BDF1) mice
Settings: endpoint: mean survival time, higher = longer survival
How it was run: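 Transplanted-tumor mice were given test agent; controls received vehicle only. Survival readings from the two groups were divided (treated over control).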

[1] = dose: 100.0 mg/kg/injection, schedule: Q04DX003 (ip), vehicle: other
[2] = dose: 200.0 mg/kg/injection, schedule: Q04DX003 (ip), vehicle: other
[3] = dose: 400.0 mg/kg/injection, schedule: Q04DX003 (ip), vehicle: other
[4] = dose: 100.0 mg/kg/injection, schedule: Q01DX009 (ip), vehicle: saline
[5] = dose: 100.0 mg/kg/injection, schedule: Q04DX003 (ip), vehicle: saline
[6] = dose: 200.0 mg/kg/injection, schedule: Q01DX009 (ip), vehicle: saline
[7] = dose: 200.0 mg/kg/injection, schedule: Q04DX003 (ip), vehicle: saline
[8] = dose: 400.0 mg/kg/injection, schedule: Q01DX009 (ip), vehicle: saline
[9] = dose: 400.0 mg/kg/injection, schedule: Q04DX003 (ip), vehicle: saline
[10] = dose: 100.0 mg/kg/injection, schedule: Q01DX009 (ip), vehicle: Klucel (hydroxypropylcellulose) (HPC)
[11] = dose: 200.0 mg/kg/injection, schedule: Q01DX009 (ip), vehicle: Klucel (hydroxypropylcellulose) (HPC)
[12] = dose: 400.0 mg/kg/injection, schedule: Q01DX009 (ip), vehicle: Klucel (hydroxypropylcellulose) (HPC)
[13] = dose: 100.0 mg/kg/injection, schedule: Q01DX001 (ip), vehicle: saline
[14] = dose: 200.0 mg/kg/injection, schedule: Q01DX001 (ip), vehicle: saline
[15] = dose: 400.0 mg/kg/injection, schedule: Q01DX001 (ip), vehicle: saline

Measured: T/C

O=[N+]([O-])c1ccc(Oc2cc(Cl)c(Cl)cc2Cl)c([N+](=O)[O-])c1
inactive: dose: 100.0 mg/kg/injection, schedule: Q01DX001 (ip), vehicle: other 90 % of control | [1] 98 % of control | dose: 200.0 mg/kg/injection, schedule: Q01DX001 (ip), vehicle: other 92 % of control | [2] 95 % of control | dose: 222.0 mg/kg/injection, schedule: Q01DX Z (ip), vehicle: methylcellulose (MC) 100 % of control | dose: 333.0 mg/kg/injection, schedule: Q01DX Z (ip), vehicle: methylcellulose (MC) 91 % of control | dose: 400.0 mg/kg/injection, schedule: Q01DX001 (ip), vehicle: other 89 % of control and 91 % of control | [3] 95 % of control | dose: 500.0 mg/kg/injection, schedule: Q01DX Z (ip), vehicle: methylcellulose (MC) 91 % of control

COC(=O)c1ccccc1NC(=O)C(Br)C(Br)C(=O)O (stereo not given)
inactive: dose: 50.0 mg/kg/injection, schedule: Q01DX009 (ip), vehicle: saline with Tween-80 101 % of control | dose: 100.0 mg/kg/injection, schedule: Q01DX009 (ip), vehicle: saline with Tween-80 96 % of control | dose: 200.0 mg/kg/injection, schedule: Q01DX009 (ip), vehicle: saline with Tween-80 117 % of control

O=C(O)c1ccc(N2C(=O)c3ccccc3C2=O)cc1[N+](=O)[O-]
inactive: [4] 103 % of control | [5] 100 % of control | [6] 108 % of control | [7] 104 % of control | [8] 107 % of control | [9] 107 % of control

Brc1cccc[n+]1-c1cccc(-c2cccc(-[n+]3ccccc3Br)c2)c1
inactive: dose: 9.38 mg/kg/injection, schedule: Q01DX001 (ip), vehicle: other 100 % of control | dose: 18.75 mg/kg/injection, schedule: Q01DX001 (ip), vehicle: other 101 % of control

O=C(C1=CC(c2ccccc2)=Nc2ccccc2N1)c1ccccc1
inactive: [1] 89 % of control | [2] 110 % of control | [3] 94 % of control

CC(C)c1cc[n+](/C(C(=S)Nc2cccc(Cl)c2)=C(/[O-])c2ccc([N+](=O)[O-])cc2)cc1
inactive: [10] 105 % of control | [11] 91 % of control | [12] 94 % of control

CN(C)c1nc2c(=O)[nH]cnc2n1C1OC(CO)C(O)C1O (stereo not given)
inactive: dose: 50.0 mg/kg/injection, schedule: Q01DX001 (ip), vehicle: saline 95 % of control | [13] 93 % of control | [14] 112 % of control | [15] 95 % of control

O=C(c1ccccc1)C1(Br)CCCCC1
inactive: [10] 96 % of control | [4] 95 % of control | [11] 96 % of control | [12] 93 % of control | [8] 101 % of control

COC1OC(COC(c2ccccc2)(c2ccccc2)c2ccccc2)C(OS(=O)(=O)c2ccc(C)cc2)C(OC(=O)c2ccccc2)C1OC(=O)c1ccccc1 (stereo not given)
inactive: dose: 100.0 mg/kg/injection, schedule: Q04DX002 (ip), vehicle: saline with Tween-80 114 % of control | dose: 200.0 mg/kg/injection, schedule: Q04DX002 (ip), vehicle: saline with Tween-80 97 % of control | dose: 400.0 mg/kg/injection, schedule: Q04DX002 (ip), vehicle: saline with Tween-80 90 % of control

N#C/C(=C\c1cccn1Cc1cc2c(cc1[N+](=O)[O-])OCO2)C(N)=O
inactive: dose: 25.0 mg/kg/injection, schedule: Q04DX002 (ip), vehicle: Klucel (hydroxypropylcellulose) (HPC) 96 % of control | dose: 50.0 mg/kg/injection, schedule: Q04DX002 (ip), vehicle: Klucel (hydroxypropylcellulose) (HPC) 96 % of control | dose: 100.0 mg/kg/injection, schedule: Q04DX002 (ip), vehicle: Klucel (hydroxypropylcellulose) (HPC) 96 % of control

COc1ccc(Cl)cc1NC(=O)N1CCN(c2ccccc2)CC1
inactive: [10] 120 % of control | [5] 101 % of control | [11] 97 % of control | [7] 101 % of control | [12] 111 % of control | [9] 97 % of control

CC(C)(C)c1cc(OCC2CO2)ccc1OCC1CO1 (stereo not given)
inactive: [13] 107 % of control | [14] 107 % of control | [15] 95 % of control

CCCCCCNCCC[P+](c1ccccc1)(c1ccccc1)c1ccccc1
inactive: dose: 12.5 mg/kg/injection, schedule: Q04DX002 (ip), vehicle: saline 91 % of control | dose: 25.0 mg/kg/injection, schedule: Q04DX002 (ip), vehicle: saline 98 % of control | dose: 50.0 mg/kg/injection, schedule: Q04DX002 (ip), vehicle: saline 98 % of control

O=C(O)CCC1CCC(=O)OC1=O (stereo not given)
inactive: [4] 101 % of control | [5] 98 % of control | [6] 100 % of control | [7] 89 % of control | [8] 99 % of control | [9] 94 % of control

CN(N)Cc1cccc(O)c1
inactive: dose: 50.0 mg/kg/injection, schedule: Q01DX009 (ip), vehicle: saline 101 % of control | [4] 104 % of control | [6] 101 % of control

Cn1c(=O)c2[n-]cnc2n(C)c1=O.Cn1c(=O)c2[n-]cnc2n(C)c1=O.[Pt+2]
inactive: dose: 25.0 mg/kg/injection, schedule: Q04DX003 (ip), vehicle: saline with Tween-80 102 % of control | dose: 50.0 mg/kg/injection, schedule: Q04DX003 (ip), vehicle: saline with Tween-80 98 % of control | dose: 100.0 mg/kg/injection, schedule: Q04DX003 (ip), vehicle: saline with Tween-80 98 % of control
